# Reference: patent publication US7151105B2, “Inhibitors of Hepatitis C virus RNA-dependent RNA polymerase, and compositions and treatments using the same” (Agouron Pharmaceuticals, Inc., priority 2004, dated 2006)
# Counter-ions that a name gives are not always drawn.
# Biological target: T1, Recombinant HCV polymerase (Hepatitis C virus genotype 1b, UniProt P26663)
# T1 construct: Recombinant HCV polymerase was tested for its ability to perform primer/template-directed transcription
# Experiment: biochemical
# Details: inhibition of polymerase-directed transcription; 30 min at 30° C; 30 nM enzyme; cpm data in triplicate
# Outline: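 Primer/template-directed RNA synthesis by 2.5 pmol HCV polymerase on poly(rC)300/biotin-dG12 with 1 μM GTP plus α-32P-GTP, in pH 7.2 Tris buffer with 10 mM MgCl2, for 30 min at 30 °C. Products were filter-captured and counted, with 1% DMSO final. IC50 was fitted from triplicate cpm; percent inhibition was reported where IC50 was impractical.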
# T1 sequence (P26663 2420-3010): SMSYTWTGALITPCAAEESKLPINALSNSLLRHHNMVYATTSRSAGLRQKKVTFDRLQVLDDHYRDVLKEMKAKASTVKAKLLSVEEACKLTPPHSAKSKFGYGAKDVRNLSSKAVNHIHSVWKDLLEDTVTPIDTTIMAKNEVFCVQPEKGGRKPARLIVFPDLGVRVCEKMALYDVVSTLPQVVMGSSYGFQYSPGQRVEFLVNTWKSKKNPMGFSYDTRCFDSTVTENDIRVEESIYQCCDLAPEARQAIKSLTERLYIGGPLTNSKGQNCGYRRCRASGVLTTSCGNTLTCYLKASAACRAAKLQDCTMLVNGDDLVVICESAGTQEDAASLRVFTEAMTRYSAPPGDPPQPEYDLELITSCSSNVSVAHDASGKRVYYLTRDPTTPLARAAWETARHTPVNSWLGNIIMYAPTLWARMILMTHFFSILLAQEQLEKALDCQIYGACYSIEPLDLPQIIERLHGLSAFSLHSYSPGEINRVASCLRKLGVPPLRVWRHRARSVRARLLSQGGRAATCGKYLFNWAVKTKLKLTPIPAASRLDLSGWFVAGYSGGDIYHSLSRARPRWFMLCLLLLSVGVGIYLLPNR
row,Structure (SMILES),IC50
1,"Cn1nc(C(F)(F)F)c(CC2=C(O)CC(CCc3ccc(C(C)(C)C#N)c(F)c3)(C3CCCC3)OC2=O)c1Cl (stereo not shown) [A(97), 2-{4-[2-(5-{[5-Chloro-1-methyl-3-(trifluoromethyl)-1H-pyrazol-4-yl]methyl}-2-cyclopentyl-4-hydroxy-6-oxo-3,6-dihydro-2H-pyran-2-yl)ethyl]-2-fluorophenyl}-2-methylpropanenitrile]",11 nM
2,"COc1cc(O)c(C(C)=O)cc1CCC1(C2CCCC2)CC(O)=C(Cc2nc3nc(C)cc(C)n3n2)C(=O)O1 (stereo not shown) [A(98), 6-[2-(5-Acetyl-4-hydroxy-2-methoxyphenyl)ethyl]-cyclopentyl-3-[(5,7-dimethyl[1,2,4]triazolo[1,5-a]pyrimidin-2-yl)methyl]-4-hydroxy-5,6-dihydro-2H-pyran-2-one]",11 nM
3,"COc1cc(O)c(C(C)=O)cc1CCC1(C2CCCC2)CC(=O)CC(=O)O1 (stereo not shown) [A(99), 6-[2-(5-Acetyl-4-hydroxy-2-methoxyphenyl)ethyl]-6-cyclopentyldihydro-2H-pyran-2,4(3H)-dione]",8400 nM
4,"Cc1c(CC2=C(O)CC(CCc3ccc(C(C)(C)C#N)c(F)c3)(C3CCCC3)OC2=O)c(=O)n(-c2ccccc2)n1C (stereo not shown) [A(100), 2-[4-(2-{2-Cyclopentyl-5-[(1,5-dimethyl-3-oxo-2-phenyl-2,3-dihydro-1H-pyrazol-4-yl)methyl]-4-hydroxy-6-oxo-3,6-dihydro-2H-pyran-2-yl}ethyl)-2-fluorophenyl]-2-methylpropanenitrile]",79 nM
5,"CCc1cc(CCC2(C3CCCC3)CC(O)=C(Cc3nc4nc(C)cc(C)n4n3)C(=O)O2)ccc1CC#N (stereo not shown) [A(101), [4-(2-{2-Cyclopentyl-5-[(5,7-dimethyl[1,2,4]triazolo[1,5-a]pyrimidin-2-yl)methyl]-4-hydroxy-6-oxo-3,6-dihydro-2H-pyran-2-yl}ethyl)-2-ethylphenyl]acetonitrile]",8 nM
6,"CCc1cc(CCC2(C3CCCC3)CC(=O)CC(=O)O2)ccc1CC#N (stereo not shown) [A(102), {4-[2-(2-Cyclopentyl-4,6-dioxotetrahydro-2H-pyran-2-yl)ethyl]-2-ethylphenyl}acetonitrile]",840 nM
7,"CCc1cc(CCC2(C3CCCC3)CC(O)=C(Cc3nc4ncc(C)cn4n3)C(=O)O2)ccc1CC#N (stereo not shown) [A(103), [4-(2-{2-cyclopentyl-4-hydroxy-5-[(6-methyl[1,2,4]triazolo[1,5-a]pyrimidin-2-yl)methyl]-6-oxo-3,6-dihydro-2H-pyran-2-yl}ethyl)-2-ethylphenyl]acetonitrile]",3 nM
8,"CCc1cc(CCC2(C3CCCC3)CC(O)=C(Cc3nc4nc(C)cc(C)n4n3)C(=O)O2)ccc1NS(C)(=O)=O (stereo not shown) [A(104), N-[4-(2-{2-cyclopentyl-5-[(5,7-dimethyl[1,2,4]triazolo[1,5-a]pyrimidin-2-yl)methyl]-4-hydroxy-6-oxo-3,6dihydro-2H-pyran-2-yl}ethyl)-2-ethylphenyl]methanesulfonamide]",6 nM
9,"CCc1cc(CCC2(C3CCCC3)CC(=O)CC(=O)O2)ccc1NS(C)(=O)=O (stereo not shown) [A(105), N-{4-[2-(2-cyclopentyl-4,6-dioxotetrahydro-2H-pyran-2-yl)ethyl]-2-ethylphenyl}methanesulfonamide]",250 nM
10,"CCc1cc(CCC2(C3CCCC3)CC(O)=C(Cc3nc4ncc(C)cn4n3)C(=O)O2)ccc1NS(C)(=O)=O (stereo not shown) [A(106), N-[4-(2-{2-cyclopentyl-4-hydroxy-5-[(6-methyl[1,2,4]triazolo[1,5-a]pyrimidin-2-yl)methyl]-6-oxo-3,6-dihydro-2H-pyran-2-yl}ethyl)-2-ethylphenyl]methanesulfonamide]",4 nM
11,"CCc1cc(CCC2(C3CCCC3)CC(O)=C(Cc3nc4ncccn4n3)C(=O)O2)ccc1NS(C)(=O)=O (stereo not shown) [A(107), N-(4-{2-[2-cyclopentyl-4-hydroxy-6-oxo-5-([1,2,4]triazolo[1,5-a]pyrimidin-2-ylmethyl)-3,6dihydro-2H-pyran-2-yl]ethyl}-2-ethylphenyl)methanesulfonamide]",6 nM
12,"CCc1cc(CCC2(C3CCCC3)CC(O)=C(Cc3nc4nc(C)cc(C)n4n3)C(=O)O2)ccc1NS(=O)(=O)CC (stereo not shown) [A(108), N-[4-(2-{2-cyclopentyl-5-[(5,7-dimethyl[1,2,4]triazolo[1,5-a]pyrimidin-2-yl)methyl]-4-hydroxy-6-oxo-3,6-dihydro-2H-pyran-2-yl}ethyl)-2-ethylphenyl]ethanesulfonamide]",6 nM
13,"CCCS(=O)(=O)Nc1ccc(CCC2(C3CCCC3)CC(O)=C(Cc3nc4nc(C)cc(C)n4n3)C(=O)O2)cc1CC (stereo not shown) [A(109), N-[4-(2-{2-cyclopentyl-5-[(5,7-dimethyl[1,2,4]triazolo[1,5-a]pyrimidin-2-yl)methyl]-4-hydroxy-6-oxo-3,6-dihydro-2H-pyran-2-yl}ethyl)-2-ethylphenyl]propane-1-sulfonamide]",6 nM
14,"CCc1cc(CCC2(C3CCCC3)CC(O)=C(Cc3nc4nc(C)cc(C)n4n3)C(=O)O2)ccc1Cn1cncn1 (stereo not shown) [A(110), 6-Cyclopentyl-3-[(5,7-dimethyl[1,2,4]triazolo[1,5-a]pyrimidin-2-yl)methyl]-6-{2-[3-ethyl-4-(1H-1,2,4-triazol-1-ylmethyl)phenyl]ethyl}-4-hydroxy-5,6-dihydro-2H-pyran-2-one]",6 nM
15,"CCc1cc(CCC2(C3CCCC3)CC(O)=C(Cc3nc4nc(C)cc(C)n4n3)C(=O)O2)ccc1C (stereo not shown) [A(111), 6-Cyclopentyl-3[(5,7-dimethyl[1,2,4]triazolo[1,5-a]pyrimidin-2-yl)methyl]-6-[2-(3-ethyl-4-methylphenyl)ethyl]-4-hydroxy-5,6dihydro-2H-pyran-2-one]",5 nM
16,"CCc1cc(CCC2(C3CCCC3)CC(O)=C(Cc3nc4nc(C)cc(C)n4n3)C(=O)O2)ccc1Cn1cccn1 (stereo not shown) [A(112), 6-Cyclopentyl-3-[(5,7-dimethyl[1,2,4]triazolo[1,5-a]pyrimidin-2-yl)methyl]-6-{2-[3-ethyl-4-(1H-pyrazol-1-ylmethyl)phenyl]ethyl}-4-hydroxy-5,6-dihydro-2H-pyran-2-one]",7 nM
17,"CCc1cc(CCC2(C3CCCC3)CC(O)=C(Cc3nc4ncc(C)cn4n3)C(=O)O2)ccc1Cn1cccn1 (stereo not shown) [A(113), 6-Cyclopentyl-6-{2-[3-ethyl-4-(1H-pyrazol-1-ylmethyl)phenyl]ethyl}-4-hydroxy-3-[(6-methyl[1,2,4]triazolo[1,5-a]pyrimidin-2-yl)methyl]-5,6-dihydro-2H-pyran-2-one]",7 nM
18,"CCc1cc(CCC2(C3CCCC3)CC(O)=C(Cc3nc4nc(C)cc(C)n4n3)C(=O)O2)ccc1C(=O)OC (stereo not shown) [A(118), Methyl 4-(2-{2-cyclopentyl-5-[(5,7-dimethyl[1,2,4]triazolo[1,5a]pyrimidin-2-yl)methyl]-4-hydroxy-6oxo-3,6-dihydro-2H-pyran-2-yl}ethyl)-2-ethylbenzoate]",7 nM
19,"CCc1cc(CCC2(C3CCCC3)CC(O)=C(Cc3nc4nc(C)cc(C)n4n3)C(=O)O2)ccc1COC (stereo not shown) [A(120), 6-Cyclopentyl-3-[(5,7-dimethyl[1,2,4]triazolo[1,5-a]pyrimidin-2-yl)methyl]-6-{2-[3ethyl-4-(methoxymethyl)phenyl]ethyl}-4-hydroxy-5,6dihydro-2H-pyran-2-one]",7 nM
20,"CCc1cc(CCC2(C3CCCC3)CC(O)=C(Cc3nc4nc(C)cc(C)n4n3)C(=O)O2)ccc1C(=O)NC (stereo not shown) [A(121), 4-(2-{2-cyclopentyl-5-[(5,7-dimethyl[1,2,4]triazolo[1,5-a]pyrimidin-2-yl)methyl]-4-hydroxy-6-oxo-3,6-dihydro-2H-pyran-2-yl}ethyl)-2-ethyl-N-methylbenzamide]",6 nM
21,"CCc1cc(CCC2(C3CCCC3)CC(O)=C(Cc3nc4nc(C)cc(C)n4n3)C(=O)O2)ccc1Oc1nccs1 (stereo not shown) [A(122), 6-Cyclopentyl-3-[(5,7-dimethyl[1,2,4]triazolo[1,5-a]pyrimidin-2-yl)methyl]-6-{2-[3ethyl-4-(1,3thiazol-2-yloxy)phenyl]ethyl}-4hydroxy-5,6dihydro-2H-pyran-2-one]",4 nM
22,"CCc1cc(CCC2(C3CCCC3)CC(O)=C(Cc3nc4nc(C)cc(C)n4n3)C(=O)O2)c(C)nc1N (stereo not shown) [A(124), 6-[2-(6-Amino-5-ethyl-2-methylpyridin-3-yl)ethyl]-6-cyclopentyl-3-[(5,7-dimethyl[1,2,4]triazolo[1,5-a]pyrimidin-2-yl)methyl]-4-hydroxy-5,6-dihydro-2H-pyran-2-one]",8 nM
23,"CCc1cc(CCC2(C3CCCC3)CC(O)=C(Cc3nc4nc(C)cc(C)n4n3)C(=O)O2)ccc1CN (stereo not shown) [A(125), 6-{2-[4-(Aminomethyl)-3-ethylphenyl]ethyl}-6-cyclopentyl-3-[(5,7-dimethyl[1,2,4]triazolo[1,5-a]pyrimidin-2-yl)methyl]-4-hydroxy-5,6-dihydro-2H-pyran-2-one hydrochloride]",10 nM
24,CCc1cc(CCC2(C3CCCC3)CC(O)=C(Cc3nc4nc(C)cc(C)n4n3)C(=O)O2)ccc1CNC(=O)OC(C)(C)C (stereo not shown) [A(126)],6 nM
25,"CCc1cc(CCC2(C3CCCC3)CC(O)=C(Cc3nc4nc(C)cc(C)n4n3)C(=O)O2)ccc1CNCC1CC1 (stereo not shown) [A(127), 6-Cyclopentyl-6-[2-(4-{[(cyclopropylmethyl)amino]methyl}-3-ethylphenyl)ethyl]-3-[(5,7-dimethyl[1,2,4]triazolo[1,5-a]pyrimidin-2-yl)methyl]-4-hydroxy-5,6-dihydro-2H-pyran-2-one]",130 nM
26,CCc1cc(CCC2(C3CCCC3)CC(O)=C(Cc3nc4nc(C)cc(C)n4n3)C(=O)O2)ccc1CNS(C)(=O)=O (stereo not shown) [A(128)],6 nM
27,"CCc1cc(CCC2(C3CCCC3)CC(O)=C(Cc3nc4nc(C)cc(C)n4n3)C(=O)O2)ccc1CNC(C)=O (stereo not shown) [A(131), N-[4-(2-{2-cyclopentyl-5-[(5,7-dimethyl[1,2,4]triazolo[1,5-a]pyrimidin-2-yl)methyl]-4-hydroxy-6-oxo-3,6-dihydro-2H-pyran-2-yl}ethyl)-2-ethylbenzyl]acetamide]",2 nM
28,"CCc1cc(CCC2(C3CCCC3)CC(O)=C(Cc3nc4nc(C)cc(C)n4n3)C(=O)O2)ccc1-c1ncco1 (stereo not shown) [A(134), 6-cyclopentyl-3-[(5,7-dimethyl[1,2,4]triazolo[1,5-a]pyrimidin-2-yl)methyl]-6-{2-[3-ethyl-4-(1,3-oxazol-2-yl)phenyl]ethyl}-4-hydroxy-5,6-dihydro-2H-pyran-2-one]",3 nM
